Measurements published in patent publication US11154514B2, “Quinic acid-modified nanoparticles and uses thereof” (Purdue Research Foundation, priority 2017, dated 2021).

Assays:
E-selectin = target: T1, E-selectin (Homo sapiens, UniProt P16581); test: Competitive inhibition of QANP binding to activated HUVECs; type: cell-based; settings: pre-incubated 30 minutes, flow cytometry
T1 construct: TNF-α treatment induces the expression of E-selectin on HUVECs; endogenous in cells
T1 sequence (P16581 22-610): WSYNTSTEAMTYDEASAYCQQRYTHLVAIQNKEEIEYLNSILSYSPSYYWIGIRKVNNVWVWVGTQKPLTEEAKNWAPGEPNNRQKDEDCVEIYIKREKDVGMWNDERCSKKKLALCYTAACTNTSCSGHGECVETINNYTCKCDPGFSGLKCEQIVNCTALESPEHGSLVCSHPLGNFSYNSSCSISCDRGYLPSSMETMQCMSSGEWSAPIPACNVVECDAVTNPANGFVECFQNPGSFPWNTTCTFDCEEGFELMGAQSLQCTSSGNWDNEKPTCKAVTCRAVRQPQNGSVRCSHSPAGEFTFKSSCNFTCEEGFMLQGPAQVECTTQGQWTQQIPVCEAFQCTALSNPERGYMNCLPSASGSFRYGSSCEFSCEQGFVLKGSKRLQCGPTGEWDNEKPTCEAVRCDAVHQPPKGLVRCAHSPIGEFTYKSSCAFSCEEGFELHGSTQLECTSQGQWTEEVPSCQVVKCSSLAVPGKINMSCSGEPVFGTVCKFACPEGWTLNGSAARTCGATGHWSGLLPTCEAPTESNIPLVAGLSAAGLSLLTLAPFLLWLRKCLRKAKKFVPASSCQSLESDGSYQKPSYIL
Experimental: For flow cytometry, HUVECs were treated with NPs in the same way as above and gently washed with PBS twice to remove free or loosely bound NPs. The cells were then trypsinized, collected by centrifugation at 930×g for 5 minutes, resuspended in 0.2 mL of PBS at 0° C., and analyzed with an Accuri C6 flow cytometer (BD Biosciences, San Jose, Calif., USA) equipped with an FL-1 detector (λex/λem=488/525 nm). For competition assay, known concentrations of free QA-NH2 or E-selectin antibody were pre-incubated with HUVECs for 30 minutes, prior to the NP treatment and flow cytometry.

[1] = test system: subcutaneous MDA-MB-231 tumor xenografts; test: In vivo whole body imaging and ex vivo organ distribution; design: species or system female athymic nude mice; settings: tail vein, imaged over 24 hours
Experimental: All animal procedures were approved by the Purdue Animal Care and Use Committee, in compliance with the NIH guidelines for the care and use of laboratory animals. Female athymic nude mice ([…]) at the age of 6-7 weeks were purchased from Envigo (Indianapolis, Ind., USA) and acclimatized for 1 week prior to the procedure. Each mouse received 5×10^6 MDA-MB-231 cells in the flank of hind leg by subcutaneous injection. […] […] After 48 hours, mice were sacrificed, and tumors and major organs were retrieved and imaged with IVIS Lumina system. To quantify ICG content in each organ, tumor and major organs were homogenized in DMSO with a Tissue Master homogenizer (Omni International, Kennesaw, Ga., USA). The organ homogenates were centrifuged, and 0.1 mL supernatant was sampled from each homogenate and analyzed with the IVIS Lumina system.

| Compound | QANP binding to the activated HUVECs in presence of competitor (E-selectin) | tumor fluorescence (whole body imaging) [1] | whole body distribution and clearance [1] |
| --- | --- | --- | --- |
| Nc1cc(NC(=O)[C@]2(O)C[C@@H](O)[C@@H](O)[C@H](O)C2)cc(C(=O)O)c1 [QA-NH2, 3-amino-5-((1 S,3R,4S,5R)-1,3,4,5-tetrahydroxycyclohexane-1-carboxamido)benzoic Acid] | reduced |  |  |
| CC1(C)C(/C=C/C=C/C=C/C=C2\N(CCCCS(=O)(=O)O)c3ccc4ccccc4c3C2(C)C)=[N+](CCCCS(=O)(=O)[O-])c2ccc3ccccc3c21 [free ICG, indocyanine green] |  | did not show fluorescence in tumors at all time points | gradually cleared by hepatobiliary elimination |
